Assay [1] addresses T1, HCV polymerase (NS5B) type 1a (Hepatitis C virus genotype 1a, UniProt P26664).
T1 construct: made in house; host or cells: Escherichia coli (by the 'similar method' of the 1b enzyme)
Description: Assay of enzyme (HCV polymerase) inhibitory activity, type 1a enzyme. The note with it: HCV polymerase inhibitory activity IC50, 1a, type 1a enzyme. It is filed as biochemical, HCV type 1a (cloned from the blood of patients). The procedure, abridged:
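His-tagged NS5B, C-terminal 47 residues deleted, type 1a at 1.5 μg/ml, with 5 μg/ml HCV 3′UTR substrate RNA, 50 μM ATP/GTP/CTP, 2 μM UTP plus [3H]UTP, pH 7.5 Tris, 5 mM MgCl2; 60 min at 25° C. TCA-precipitated RNA counted by scintillation; IC50 from radioactivity with vs. without compound.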

For assay [2], the target named is T2, HCV polymerase (NS5B) type 1b (Hepatitis C virus genotype 1b, UniProt P26663).
T2 construct: a region encoding NS5B (J Virol 1991 March, 65(3), 1105-13, 544 amino acids after deletion of 47 amino acids on the C-terminal); 6xHis (C); made in house; host or cells: Escherichia coli
The assay can be described thus: Assay of enzyme (HCV polymerase) inhibitory activity, type 1b enzyme. The assay is classed as biochemical, HCV BK strain (type 1b). As to conditions: HCV polymerase inhibitory activity IC50, 1b, type 1b enzyme. The procedure, abridged: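 His-tagged, C-terminally truncated NS5B (BK strain, 1b; 0.5 μg/ml) incubated with compound 60 min at 25 °C on 3′UTR-derived substrate RNA (5 μg/ml), 50 μM ATP/GTP/CTP, 2 μM UTP plus [3H]UTP, pH 7.5. Acid-precipitated RNA counted; IC50 from radioactivity with and without compound.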

Results on 16 compounds are retold here after patent US8017612B2, “Piperazine compound and use thereof as a HCV polymerase inhibitor” (priority 2006, dated 2011).

Structures are written as SMILES.

As to `CCCc1ccc(CNC(=O)[C@H]2CN(c3nc4c(C(=O)O)nncc4s3)CCN2S(=O)(=O)c2ccc(CC)cc2)cc1` [Example 892, 2-[(R)-4-(4-ethyl-benzenesulfonyl)-3-(4-propyl-benzylcarbamoyl)-piperazin-1-yl]-thiazolo[4,5-d]pyridazine-4-carboxylic acid], the IC50 in assay [1] and in assay [2] was under 0.1 µM throughout.

Regarding `Cc1n[nH]c(=O)c2sc(N3CCN(S(=O)(=O)c4ccc(C(F)(F)F)cc4)[C@@H](C(=O)NCc4ccc(OC(F)(F)F)cc4)C3)nc12` [Example 893, (R)-4-(4-methyl-7-oxo-6,7-dihydro-thiazolo[4,5-d]pyridazin-2-yl)-1-(4-trifluoromethyl-benzenesulfonyl)-piperazine-2-carboxylic acid 4-trifluoromethoxy-benzylamide], the IC50 in assay [1] and in assay [2] was under 0.1 µM in each case.

For `CCC(F)(F)c1ccc(CNC(=O)[C@H]2CN(c3nc4ncncc4s3)CCN2S(=O)(=O)c2ccc(OC(F)(F)F)cc2)cc1` [Example 894, (R)-4-thiazolo[4,5-d]pyrimidin-2-yl-1-(4-trifluoromethoxy-benzenesulfonyl)-piperazine-2-carboxylic acid 4-(1,1-difluoro-propyl)-benzylamide], the IC50 in assay [1] and in assay [2] was under 0.1 µM in each case.

With `CCC(F)(F)c1ccc(CNC(=O)[C@H]2CN(c3nc4nc(Cl)ncc4s3)CCN2S(=O)(=O)c2ccc(OC(F)(F)F)cc2)cc1` [Example 895, (R)-4-(5-chloro-thiazolo[4,5-d]pyrimidin-2-yl)-1-(4-trifluoromethoxy-benzenesulfonyl)-piperazine-2-carboxylic acid 4-(1,1-difluoro-propyl)-benzylamide], the IC50 in assay [1] and in assay [2] was under 0.1 µM throughout.

In the case of `O=C(NCc1ccc(OC(F)(F)F)cc1)[C@H]1CN(c2nc3cnnc(Cl)c3s2)CCN1S(=O)(=O)c1ccc(C(F)(F)F)cc1` [Example 896, (R)-4-(7-chloro-thiazolo[4,5-d]pyridazin-2-yl)-1-(4-trifluoromethyl-benzenesulfonyl)-piperazine-2-carboxylic acid 4-trifluoromethoxy-benzylamide], the IC50 in assay [1] and in assay [2] was under 0.1 µM throughout.

For `O=C(NCc1ccc(OC(F)(F)F)cc1)[C@H]1CN(c2nc3cnncc3s2)CCN1S(=O)(=O)c1ccc(C(F)(F)F)cc1` [Example 897, (R)-4-thiazolo[4,5-d]pyridazin-2-yl-1-(4-trifluoromethyl-benzenesulfonyl)-piperazine-2-carboxylic acid 4-trifluoromethoxy-benzylamide], the IC50 in assay [1] and in assay [2] was under 0.1 µM throughout.

Regarding `O=C(NCc1ccc(OC(F)(F)C(F)F)cc1)[C@H]1CN(c2nc3cn[nH]c(=O)c3s2)CCN1S(=O)(=O)c1ccc(OC(F)(F)F)cc1` [Example 898, (R)-4-(7-oxo-6,7-dihydro-thiazolo[4,5-d]pyridazin-2-yl)-1-(4-trifluoromethoxy-benzenesulfonyl)-piperazine-2-carboxylic acid 4-(1,1,2,2-tetrafluoro-ethoxy)-benzylamide], the IC50 in assay [1] and in assay [2] was under 0.1 µM each time.

For `O=C(NCC1CC(c2ccccc2)C1)[C@H]1CN(c2nc3cn[nH]c(=O)c3s2)CCN1S(=O)(=O)c1ccc(OC(F)(F)F)cc1` (stereo partly drawn) [Example 899, (R)-4-(7-oxo-6,7-dihydro-thiazolo[4,5-d]pyridazin-2-yl)-1-(4-trifluoromethoxy-benzenesulfonyl)-piperazine-2-carboxylic acid (3-phenyl-cyclobutylmethyl)-amide], the 50% inhibitory concentration (IC50) in assay [1] is over 1 µM; in assay [2] it was 0.1 to 1 µM.

Take `CCC(F)(F)c1ccc(CNC(=O)[C@H]2CN(c3nc4cn[nH]c(=O)c4s3)CCN2S(=O)(=O)c2ccc(C(F)(F)F)cc2)cc1` [Example 900, (R)-4-(7-oxo-6,7-dihydro-thiazolo[4,5-d]pyridazin-2-yl)-1-(4-trifluoromethyl-benzenesulfonyl)-piperazine-2-carboxylic acid 4-(1,1-difluoro-propyl)-benzylamide]: the IC50 in assay [1] and in assay [2] was under 0.1 µM in each case.

With `O=C(NCc1ccc2ccccc2c1)[C@H]1CN(c2nc3cn[nH]c(=O)c3s2)CCN1S(=O)(=O)c1ccc(OC(F)(F)F)cc1` [Example 901, (R)-4-(7-oxo-6,7-dihydro-thiazolo[4,5-d]pyridazin-2-yl)-1-(4-trifluoromethoxy-benzenesulfonyl)-piperazine-2-carboxylic acid (naphthalen-2-ylmethyl)-amide], the concentration for half-maximal inhibition (IC50) in assay [1] and in assay [2] was under 0.1 µM each time.

With `CCC(F)(F)c1ccc(CNC(=O)[C@H]2CN(c3nc4nc(Cl)ncc4s3)CCN2S(=O)(=O)c2ccc(C(F)(F)F)cc2)cc1` [Example 902, (R)-4-(5-chloro-thiazolo[4,5-d]pyrimidin-2-yl)-1-(4-trifluoromethyl-benzenesulfonyl)-piperazine-2-carboxylic acid 4-(1,1-difluoro-propyl)-benzylamide], the IC50 in assay [1] and in assay [2] was under 0.1 µM in each case.

As for `CCC(F)(F)c1ccc(CNC(=O)[C@H]2CN(c3nc4ncncc4s3)CCN2S(=O)(=O)c2ccc(C(F)(F)F)cc2)cc1` [Example 903, (R)-4-thiazolo[4,5-d]pyrimidin-2-yl-1-(4-trifluoromethyl-benzenesulfonyl)-piperazine-2-carboxylic acid 4-(1,1-difluoro-propyl)-benzylamide], the IC50 in assay [1] and in assay [2] was under 0.1 µM each time.

`Cn1ncc2nc(N3CCN(S(=O)(=O)c4ccc(OC(F)(F)F)cc4)[C@@H](C(=O)NCc4ccc(OC(F)(F)F)cc4)C3)sc2c1=O` [Example 904, (R)-4-(6-methyl-7-oxo-6,7-dihydro-thiazolo[4,5-d]pyridazin-2-yl)-1-(4-trifluoromethoxy-benzenesulfonyl)-piperazine-2-carboxylic acid 4-trifluoromethoxy-benzylamide]: the IC50 is 0.1 to 1 µM in assay [1] and under 0.1 µM in assay [2].

On to `COc1ncc2sc(N3CCN(S(=O)(=O)c4ccc(C(F)(F)F)cc4)[C@@H](C(=O)NCc4ccc(OC(F)(F)F)cc4)C3)nc2n1` [Example 905, (R)-4-(5-methoxy-thiazolo[4,5-d]pyrimidin-2-yl)-1-(4-trifluoromethyl-benzenesulfonyl)-piperazine-2-carboxylic acid 4-trifluoromethoxy-benzylamide], for which the IC50 in assay [1] and in assay [2] was under 0.1 µM in each case.

For `Cc1nnc(Cl)c2sc(N3CCN(S(=O)(=O)c4ccc(OC(F)(F)F)cc4)[C@@H](C(=O)NCc4ccc(OC(F)(F)F)cc4)C3)nc12` [Example 906, (R)-4-(7-chloro-4-methyl-thiazolo[4,5-d]pyridazin-2-yl)-1-(4-trifluoromethoxy-benzenesulfonyl)-piperazine-2-carboxylic acid 4-trifluoromethoxy-benzylamide], the IC50 in assay [1] and in assay [2] was under 0.1 µM throughout.

Regarding `Cc1nc(Cl)c2sc(N3CCN(S(=O)(=O)c4ccc(OC(F)(F)F)cc4)[C@@H](C(=O)NCc4ccc(OC(F)(F)F)cc4)C3)nc2n1` [Example 907, (R)-4-(7-chloro-5-methyl-thiazolo[4,5-d]pyrimidin-2-yl)-1-(4-trifluoromethoxy-benzenesulfonyl)-piperazine-2-carboxylic acid 4-trifluoromethoxy-benzylamide], the IC50 in assay [1] and in assay [2] was under 0.1 µM in each case.

In general, IC50 refers to the point on the concentration scale where inhibition reaches its midpoint. Read a low IC50 as greater potency.
